Data published in patent publication US20150322033A1, “ANTIBACTERIAL AGENT” (priority 2012, published 2015).
≈ marks a conversion by molar mass, not a printed value. Like-named read-outs stand apart in the source and are kept apart here.

Key:
[1] = test system: S. aureus FDA209P (ATCC 6538P); assay: microbe, parasite or virus in culture; type: cell-based, Staphylococcus aureus; conditions: for MIC: Staphylococcus aureus
Procedure: (§1) S. aureus Mu50 (refer to Hiramatsu, K., Hanaki H., et al., J. Antimicrob. Chemother., 1997, 40(1), 135-6) or S. aureus FDA209P (ATCC 6538P) was cultured overnight at 37° C. in 4 mL of TBS (Tryptical Soy Broth, produced by Becton Dickinson) with shaking. After completion of the culture, the cells were suspended in fresh TBS to prepare a cell suspension showing an absorbance of 0.3 at 578 nm. Then, the cell suspension was diluted 500 times with CAMHB mentioned above.
(§2) CAMHB containing each test compound at each of the aforementioned concentrations was added to each well of a 96-well plate in a volume of 50 μL/well, the aforementioned cell suspension diluted 500 time was added to the well in a volume of 50 μL/well, and stationary culture was carried out overnight at 37° C.
(§3) MIC values (mg/L) of the flavones and quinolones against the strains were measured in the same manner as that of the measurement of MIC of Example 1, except that CAMHB containing each of the aforementioned flavones and quinolones prepared in Example 2 was used instead of CAMHB containing each of the test compounds.
(§4) MIC values of the flavones and quinolone for the strains were measured in the same manners as those of Example 1, except that S. aureus Mu50 NR-1 was also used as Staphylococcus aureus in addition to S. aureus FDA209P and S. aureus Mu50, cell suspensions of the strains were prepared.
(§5) In the same manner as that of Example 1, MIC values of M-246, M-21, J-Q21, and J-Q12.1 for Staphylococcus aureus were measured. M-246 and M-21 were obtained as commercial products, and as J-Q21 and J-Q12.1, those synthesized in Examples 6 and 7 were used.

[2] = test system: S. aureus Mu50; assay: microbe, parasite or virus in culture; type: cell-based, Staphylococcus aureus; conditions: for MIC: Staphylococcus aureus; for MIC (mg/L) Mu50: Example 1, Tables 1 to 10;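 for MIC ratio: ratio is FDA209P MIC divided by Mu50 MIC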
Procedure: as §1, §2, §3, §4, §5

[3] = Example 1, Tables 1 to 10, read-out: MIC (mg/L) FDA209P
[4] = MU50, read-out: MIC (mg/L) Mu50, Example 1, Tables 1 to 10

Row | Compound | MIC [1, 3] [mg/L] | MIC [2, 4] [mg/L] | other results
1 | CC1(C)C=Cc2c(c3c(c4c2OCC(c2ccc(O)cc2)C4=O)OC(C)(C)C=C3)O1 (stereo not drawn) [compound 105] | 128 (≈ 316 µM) | 128 (≈ 316 µM) | 
2 | O=C(O)[C@H]1O[C@@H](Oc2cc3oc(-c4ccccc4)cc(=O)c3c(O)c2O)[C@H](O)[C@@H](O)[C@@H]1O [compound 59] | 128 (≈ 287 µM) | 128 (≈ 287 µM) | 
3 | CC(=O)Oc1cc(OC(C)=O)c2c(=O)c(-c3ccc4c(c3)OCCO4)coc2c1 [compound 104] | 128 (≈ 323 µM) | 64 (≈ 161 µM) | 
4 | O=c1c(-c2ccc(O)cc2O)coc2cc(O)cc(O)c12 [compound 101] | 128 (≈ 447 µM) | 128 (≈ 447 µM) | 
5 | COc1cc(OC)c(-c2coc3cc(O)cc(O)c3c2=O)cc1OC [compound 98] | 128 (≈ 372 µM) | > 128 | 
6 | COc1cc(O)c(CN2CCCCC2C)c2oc(-c3ccccc3)cc(=O)c12 (stereo not drawn) [compound 52] |  |  | MIC (mg/L) FDA209P ([1]; Example 1, Tables 1 to 10): >128 mg/L; MIC (mg/L) Mu50 [2]: >128 mg/L
7 | CC1(C)C=Cc2c(cc3oc(-c4ccc(O)cc4)cc(=O)c3c2O)O1 [compound 44] | > 128 | > 128 | 
8 | O=c1cc(-c2ccccc2)oc2ccccc12.O=c1cc(-c2ccccc2)oc2ccccc12 [Compound 25] |  |  | MIC (mg/L) S. aureus FDA209P ([1]; Example 2, Table 12): 128 mg/L; MIC ratio ([2]; (MIC value for S. aureus FDA209P)/(MIC value for S. aureus Mu50)): 2; MIC (mg/L) S. aureus Mu50 ([2]; Example 2, Table 12): 64 mg/L
9 | COc1cc(-c2[o+]c3cc(O)cc(O)c3cc2O)cc(O)c1O [compound 131] |  |  | MIC (mg/L) FDA209P ([1]; Example 1, Tables 1 to 10): 128 mg/L; MIC (mg/L) Mu50 [2]: 128 mg/L
10 | O=c1cc(-c2ccc(O)c(-c3c(O)cc(O)c4c(=O)cc(-c5ccc(O)cc5)oc34)c2)oc2cc(O)cc(O)c12 [compound 45] | > 128 | > 128 | 
11 | O=c1c(O)c(-c2ccccc2)oc2ccccc12 [compound 12] |  |  | MIC (mg/L) FDA209P ([1]; Example 1, Tables 1 to 10): >128 mg/L; MIC (mg/L) Mu50 [2]: >128 mg/L
12 | O=C1CC(c2ccc(O)cc2)Oc2cc(O)cc(O)c21 (stereo not drawn) [compound 128, 4′,5,7-Trihydroxyflavanone] | 128 (≈ 470 µM) | 128 (≈ 470 µM) | 
13 | CC(=O)Oc1cc(OC(C)=O)c2c(=O)c(-c3ccc4c(c3)OCCCO4)c(C)oc2c1 [compound 109] | 128 (≈ 302 µM) | 128 (≈ 302 µM) | 
14 | O=c1c(O)c(-c2ccc(O)c(O)c2)oc2c(O)c(O)cc(O)c12 [compound 37] | 128 (≈ 402 µM) | 62 (≈ 195 µM) | MIC (mg/L) Mu50 [2]: 64 mg/L (≈ 201 µM)
15 | O.Oc1cc(O)c2c(c1)OC(c1ccc(O)c(O)c1)C(O)C2 (stereo not drawn) [compound 133, 3,3′,4′,5,7-Flavanpentol Hydrate] |  |  | MIC (mg/L) FDA209P ([1]; Example 1, Tables 1 to 10): 128 mg/L; MIC (mg/L) Mu50 ([2]; Hydrate): >128 mg/L
16 | O=c1c(-c2ccc3c(c2)OCCCO3)coc2cc(O)cc(O)c12 [compound 107] | 128 (≈ 392 µM) | 128 (≈ 392 µM) | 
17 | O=c1c(-c2ccc(O)cc2)coc2cc(O)cc(O)c12 [compound 113] | 128 (≈ 474 µM) | 128 (≈ 474 µM) | 
18 | O=c1cc(-c2ccc(O)cc2)oc2c(C3CC3)c(O)ccc12 [J-Q21, 8-Cyclopropyl-7-hydroxy-2-(4-hydroxyphenyl)chromen-4-one] |  |  | MIC ([1]; Example 8, Table 17, read-out: MIC FDA209P): > 128 mg/L; MIC ([2]; MU50, read-out: MIC Mu50, Example 8, Table 17): 4 mg/L (≈ 13.6 µM)
19 | CC(=O)Oc1ccc(-c2coc3cc(OC(C)=O)cc(OC(C)=O)c3c2=O)cc1 [compound 82] | > 128 | > 128 | 
20 | COc1cc(O)c(CN(C)C)c2oc(-c3ccccc3)cc(=O)c12 [compound 47] | 128 (≈ 393 µM) | > 128 | 
21 | COc1cc(-c2oc3cc(O)c(OC)c(O)c3c(=O)c2OC)ccc1O [compound 29] | > 128 | > 128 | 
22 | O=c1cc(-c2ccc(O)cc2)oc2cccc(O)c12 [compound 70] | 128 (≈ 503 µM) | 128 (≈ 503 µM) | 
23 | O=c1cc(-c2ccccc2)oc2c(O)c(O)ccc12 [compound 14] |  |  | MIC (mg/L) FDA209P ([1]; Example 1, Tables 1 to 10): 64 mg/L (≈ 252 µM); MIC (mg/L) Mu50 [2]: 64 mg/L (≈ 252 µM)
24 | O=C1CC(c2ccc(O)cc2)Oc2ccccc21 (stereo not drawn) [compound 123, 4′-Hydroxyflavanone] | 128 (≈ 533 µM) | 128 (≈ 533 µM) | 
25 | COc1ccc(-c2c(C(F)(F)F)oc3cc(O)cc(O)c3c2=O)cc1OC [compound 118] | 128 (≈ 335 µM) | 64 (≈ 167 µM) | 
26 | Cc1c(O)cc2oc(-c3ccc(O)c(O)c3)c(O)c(=O)c2c1O [compound 5] |  |  | MIC (mg/L) FDA209P ([1]; Example 1, Tables 1 to 10): 128 mg/L (≈ 405 µM); MIC (mg/L) Mu50 [2]: 128 mg/L (≈ 405 µM)
